Test [1] deals with T1, FGFR1 (Homo sapiens, UniProt P11362).
T1 construct: made in house; host or cells: E. coli (BL21-derived), T7 phage
Description: Kinase binding assay (kinase-tagged T7 phage, affinity beads, qPCR), Kd. The following applies: read-out: FGFR1 (Kd nM). The method, boiled down:
(§1)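 First, phage lysates carrying tagged kinase are made in E. coli at 32° C. Next, they are combined with blocked biotin-ligand streptavidin beads and compound at 0.9% final DMSO. Finally, eluted kinase is measured by qPCR and Kd is fitted with the Hill equation.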

Test [2] concerns the target T2, FGFR2 (Homo sapiens, UniProt P21802).
T2 construct: made in house; host or cells: E. coli (BL21-derived), T7 phage
The description is as above. The following applies: read-out: FGFR2 (Kd nM). The method, boiled down: as §1

Test [3] addresses T3, FGFR3 (Homo sapiens, UniProt P22607).
T3 construct: made in house; host or cells: E. coli (BL21-derived), T7 phage
Described as above. As to conditions: read-out: FGFR3 (Kd nM). The method, boiled down:
as §1

Test [4] has as its target T4, FGFR4 (Homo sapiens, UniProt P22455).
T4 construct: made in house; host or cells: E. coli (BL21-derived), T7 phage
Described as above. As to conditions: read-out: FGFR4 (Kd nM). The method, boiled down: as §1

Test [5] has as its system KATO-III cell line (FGFR2 amplification). Description: Cancer cell line cell viability assay (Cell Titer-Glo), 72 hr. The format is cell-based. The following applies: Homo sapiens, KATO III. The method, boiled down:
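5,000-20,000 cells/well o/n; cpd 9-pt 4x dil from 3 μM, n=3; 37° C/5% CO2; CTG 2.0 lumi; % DMSO ctrl; 4PL IC50.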
Background: ATP-based viability assays read luminescence as a measure of living cells.

Test [6] deals with KG-1 cell line (FGFR 1-fusion). The description is as above. The following applies: Homo sapiens, KG-1, KG-1 cell line (FGFR1-fusion). In kind it is cell-based. The method, boiled down: (§2)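 RPMI1640/10% FBS for RT112/84 and MDA-MB-453; IMDM/20% FBS for KG-1; IMDM/10% FBS for HuH7. Cells plated overnight, dosed from 3 μM in 4-fold, 9-point series, incubated at 37° C, then lysed with Cell Titer-Glo 2.0; IC50 by sigmoidal fit.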

The subject of test [7] is RT112/84 cell line (FGFR3-fusion). Described as above. In kind it is cell-based. As to conditions: Homo sapiens, RT112/84, RT112/84 cell line (FGFR3-fusion). The method in brief:
as §2

Test [8] relates to HuH7 cell line (FGF19 amplification). Description: Cancer cell line cell viability assay (Cell Titer-Glo), 120 hr. As to conditions: Homo sapiens, Huh-7. In kind it is cell-based. The method in brief: as §2

Molecules are shown by their SMILES.

T2 sequence (P21802 22-821): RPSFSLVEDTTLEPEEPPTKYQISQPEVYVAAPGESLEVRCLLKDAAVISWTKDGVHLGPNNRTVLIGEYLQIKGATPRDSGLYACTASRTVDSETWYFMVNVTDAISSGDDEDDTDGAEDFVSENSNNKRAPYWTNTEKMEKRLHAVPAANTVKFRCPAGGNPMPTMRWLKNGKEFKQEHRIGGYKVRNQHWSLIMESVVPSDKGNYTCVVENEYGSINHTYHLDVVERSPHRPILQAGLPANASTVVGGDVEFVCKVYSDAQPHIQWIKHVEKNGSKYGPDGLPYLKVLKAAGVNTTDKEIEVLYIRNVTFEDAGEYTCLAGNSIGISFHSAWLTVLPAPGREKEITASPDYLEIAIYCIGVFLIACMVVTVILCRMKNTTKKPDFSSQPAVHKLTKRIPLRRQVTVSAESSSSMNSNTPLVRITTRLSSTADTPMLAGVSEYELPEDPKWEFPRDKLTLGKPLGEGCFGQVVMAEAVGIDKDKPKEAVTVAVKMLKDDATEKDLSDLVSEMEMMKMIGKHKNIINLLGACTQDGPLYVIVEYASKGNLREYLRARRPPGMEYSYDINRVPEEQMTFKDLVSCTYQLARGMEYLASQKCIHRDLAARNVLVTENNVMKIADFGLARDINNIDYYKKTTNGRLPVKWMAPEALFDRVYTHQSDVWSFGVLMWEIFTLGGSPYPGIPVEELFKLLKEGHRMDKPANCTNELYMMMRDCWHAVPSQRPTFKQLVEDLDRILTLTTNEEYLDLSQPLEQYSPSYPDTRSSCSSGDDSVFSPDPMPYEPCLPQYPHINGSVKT
T1 sequence (P11362 22-822): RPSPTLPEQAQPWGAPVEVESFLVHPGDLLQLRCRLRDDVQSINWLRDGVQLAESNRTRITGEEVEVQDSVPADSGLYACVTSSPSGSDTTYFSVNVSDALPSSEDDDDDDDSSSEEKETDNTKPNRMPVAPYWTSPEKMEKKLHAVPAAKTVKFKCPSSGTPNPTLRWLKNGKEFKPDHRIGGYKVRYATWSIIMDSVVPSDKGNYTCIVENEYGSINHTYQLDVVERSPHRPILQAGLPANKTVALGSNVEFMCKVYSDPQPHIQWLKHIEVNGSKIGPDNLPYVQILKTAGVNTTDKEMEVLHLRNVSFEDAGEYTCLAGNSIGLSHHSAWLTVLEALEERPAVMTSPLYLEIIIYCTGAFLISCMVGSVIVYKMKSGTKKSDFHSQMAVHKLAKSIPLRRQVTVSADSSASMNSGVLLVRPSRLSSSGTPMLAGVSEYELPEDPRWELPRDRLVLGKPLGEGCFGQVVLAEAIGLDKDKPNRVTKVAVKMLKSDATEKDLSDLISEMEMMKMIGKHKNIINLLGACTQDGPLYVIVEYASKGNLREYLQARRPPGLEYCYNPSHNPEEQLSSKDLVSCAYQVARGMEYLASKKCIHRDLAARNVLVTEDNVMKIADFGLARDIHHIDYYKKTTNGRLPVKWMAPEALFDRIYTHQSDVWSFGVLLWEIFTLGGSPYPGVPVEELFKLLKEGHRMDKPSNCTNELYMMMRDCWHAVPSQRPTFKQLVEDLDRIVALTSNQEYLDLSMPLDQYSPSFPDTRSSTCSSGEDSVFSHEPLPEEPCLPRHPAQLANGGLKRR
T3 sequence (P22607 23-806): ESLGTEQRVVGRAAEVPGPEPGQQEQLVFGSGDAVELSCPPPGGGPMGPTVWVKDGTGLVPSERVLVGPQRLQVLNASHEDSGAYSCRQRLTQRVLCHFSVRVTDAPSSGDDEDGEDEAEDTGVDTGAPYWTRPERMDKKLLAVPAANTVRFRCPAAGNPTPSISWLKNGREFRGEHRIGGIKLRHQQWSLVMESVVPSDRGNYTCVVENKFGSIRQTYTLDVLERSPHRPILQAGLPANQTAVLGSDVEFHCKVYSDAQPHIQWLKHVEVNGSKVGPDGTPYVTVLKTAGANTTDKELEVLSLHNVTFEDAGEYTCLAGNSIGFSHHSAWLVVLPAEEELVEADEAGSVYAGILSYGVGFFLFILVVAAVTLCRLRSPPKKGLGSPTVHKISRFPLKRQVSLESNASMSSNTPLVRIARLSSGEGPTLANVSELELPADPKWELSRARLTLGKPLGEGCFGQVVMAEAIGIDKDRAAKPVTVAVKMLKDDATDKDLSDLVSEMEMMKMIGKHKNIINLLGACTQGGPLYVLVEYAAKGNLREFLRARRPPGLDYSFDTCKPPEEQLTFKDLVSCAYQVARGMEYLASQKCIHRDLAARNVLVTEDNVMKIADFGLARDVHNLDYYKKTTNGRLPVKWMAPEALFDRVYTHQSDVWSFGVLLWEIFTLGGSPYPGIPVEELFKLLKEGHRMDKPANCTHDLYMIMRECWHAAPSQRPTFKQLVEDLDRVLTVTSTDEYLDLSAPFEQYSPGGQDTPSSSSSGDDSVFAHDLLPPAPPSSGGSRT
T4 sequence (P22455 22-802): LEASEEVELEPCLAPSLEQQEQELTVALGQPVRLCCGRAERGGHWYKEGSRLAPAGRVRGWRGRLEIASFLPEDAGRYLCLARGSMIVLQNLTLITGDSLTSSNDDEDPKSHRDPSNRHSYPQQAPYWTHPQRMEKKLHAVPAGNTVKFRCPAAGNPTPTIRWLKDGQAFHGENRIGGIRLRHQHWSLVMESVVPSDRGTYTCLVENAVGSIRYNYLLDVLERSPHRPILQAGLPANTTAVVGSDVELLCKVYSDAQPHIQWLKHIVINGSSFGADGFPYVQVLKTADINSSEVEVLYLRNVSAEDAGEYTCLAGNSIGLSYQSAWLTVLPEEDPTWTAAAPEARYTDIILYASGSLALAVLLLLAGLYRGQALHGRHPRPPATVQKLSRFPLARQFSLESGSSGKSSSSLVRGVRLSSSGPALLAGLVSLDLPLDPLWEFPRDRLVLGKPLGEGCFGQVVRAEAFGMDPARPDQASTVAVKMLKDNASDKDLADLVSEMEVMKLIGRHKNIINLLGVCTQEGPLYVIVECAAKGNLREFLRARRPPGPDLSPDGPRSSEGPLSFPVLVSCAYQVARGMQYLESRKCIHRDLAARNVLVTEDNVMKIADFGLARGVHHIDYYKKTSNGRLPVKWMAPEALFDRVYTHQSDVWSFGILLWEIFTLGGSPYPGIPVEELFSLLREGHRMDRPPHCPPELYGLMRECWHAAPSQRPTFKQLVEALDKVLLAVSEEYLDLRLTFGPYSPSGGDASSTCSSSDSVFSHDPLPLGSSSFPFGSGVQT

For the compound `COc1cc2[nH]nc(-c3cnc(N4CC(C)(N(C)CC(C)C)C4)c(C#N)c3)c2cc1O[C@H](C)c1c(Cl)cncc1Cl` [Example 343, (R)-5-(5-(1-(3,5-dichloropyridin-4-yl)ethoxy)-6-methoxy-1H-indazol-3-yl)-2-(3-(isobutyl(meth-yl)amino)-3-methylazetidin-1-yl)nicotinonitrile], the Kd (commonly the free concentration of one partner at which half of the binding sites on the other are occupied at equilibrium, for simple one-to-one binding) in test [1] was in the range of 50 to 300 nM; in test [2], 50 to 300 nM; in test [3], 1 to 50 nM; in test [4], 1 to 50 nM. The IC50 – broadly, the concentration needed to halve the response being measured – was 200 to 1000 nM in test [5], > 1000 nM in test [6], 50 to 200 nM in test [7] and 200 to 1000 nM in test [8].

`COc1cc2[nH]nc(-c3cnc(N4CC(C)(N(C)CC5CC5)C4)c(C#N)c3)c2cc1O[C@H](C)c1c(Cl)cncc1Cl` [Example 344, (R)-2-(3-((cyclopropyl-methyl) (methyl)amino)-3-methylazetidin-1-yl)-5-(5-(1-(3,5-dichloropyridin-4-yl)ethoxy)-6-methoxy-1H-indazol-3-yl)nicotinonitrile]: the Kd in test [1], in test [2], in test [3] and in test [4] was 1 to 50 nM in each case. For the same compound, the IC50 was in the range of 50 to 200 nM in test [5], 200 to 1000 nM in test [6], 0.1 to 50 nM in test [7] and 0.1 to 50 nM in test [8].

As for `COc1cc2[nH]nc(-c3cnc(N4CC(N)(CC#N)C4)c(C#N)c3)c2cc1O[C@H](C)c1c(Cl)cncc1Cl` [Example 345, 2-[3-amino-3-(cyanomethyl)azeti-din-1-yl]-5-[5-[(1R)-1-(3,5-dichloro-4-pyridyl)ethoxy]-6-methoxy-1H-indazol-3-yl]pyridine-3-carbonitrile], the Kd in test [1], in test [2], in test [3] and in test [4] was 1 to 50 nM throughout. For the same compound, the IC50 lay within 0.1 to 50 nM in test [5], 50 to 200 nM in test [6], 0.1 to 50 nM in test [7] and 0.1 to 50 nM in test [8].

For the compound `COc1cc2[nH]nc(-c3cnc(N4CC(CC#N)(NCC5CC5)C4)c(C#N)c3)c2cc1O[C@H](C)c1c(Cl)cncc1Cl` [Example 346, (R)-2-(3-(cyanomethyl)-3-((cyclo-propylmethyl)-amino)azetidin-1-yl)-5-(5-(1-(3,5-dichloropyridin-4-yl)ethoxy)-6-methoxy-1H-indazol-3-yl)nicotinonitrile], the Kd in test [1], in test [2], in test [3] and in test [4] was 1 to 50 nM each time. Further, the IC50 in test [5] was in the range of 0.1 to 50 nM; in test [6] it was 50 to 200 nM; in test [7], 0.1 to 50 nM; in test [8] it was 0.1 to 50 nM.

For `CCC1(NC)CN(c2ncc(-c3n[nH]c4cc(OC)c(O[C@H](C)c5c(Cl)cncc5Cl)cc34)cc2C#N)C1` [Example 351, (R)-5-(5-(1-(3,5-Dichloropyridin-4-yl)ethoxy)-6-methoxy-1H-indazol-3-yl)-2-(3-ethyl-3-(methyl-amino)azeti-din-1-yl)nicotinonitrile diHCl], the Kd in test [1], in test [2], in test [3] and in test [4] was 1 to 50 nM in each case. Further, the IC50 in test [5], in test [6], in test [7] and in test [8] was 0.1 to 50 nM each time.

Consider `COc1cc2[nH]nc(-c3cnc(N4CC(CC#N)(N(C)C)C4)c(C#N)c3)c2cc1O[C@H](C)c1c(Cl)cncc1Cl` [Example 352, (R)-2-(3-(cyanomethyl)-3-(dimethylamino)-azetidin-1-yl)-5-(5-(1-(3,5-dichloropyridin-4-yl)ethoxy)-6-methoxy-1H-indazol-3-yl)nicotinonitrile], for which the Kd in test [1], in test [2], in test [3] and in test [4] was 1 to 50 nM throughout. Besides, the IC50 in test [5], in test [6], in test [7] and in test [8] was 0.1 to 50 nM in each case.

Consider `COc1cc2[nH]nc(-c3cnc(N4CC(N)(C(C)C)C4)c(C#N)c3)c2cc1O[C@H](C)c1c(Cl)cncc1Cl` [Example 353, (R)-2-(3-amino-3-isopropylazetidin-1-yl)-5-(5-(1-(3,5-dichloropyridin-4-yl)ethoxy)-6-methoxy-1H-indazol-3-yl)nicotinonitrile], for which the Kd in test [1], in test [2], in test [3] and in test [4] was 1 to 50 nM in each case. In addition, the IC50 in test [5] was 50 to 200 nM; in test [6] it was 50 to 200 nM; in test [7], 0.1 to 50 nM; in test [8], 0.1 to 50 nM.

As to `COc1cc2[nH]nc(-c3cnc(N4CC(CC#N)(N5CCCC5)C4)c(C#N)c3)c2cc1O[C@H](C)c1c(Cl)cncc1Cl` [Example 354, (R)-2-(3-(cyanomethyl)-3-(pyrrolidin-1-yl)azetidin-1-yl)-5-(5-(1-(3,5-dichloropyridin-4-yl)ethoxy)-6-methoxy-1H-indazol-3-yl)nicotinonitrile], the Kd in test [1], in test [2], in test [3] and in test [4] was 1 to 50 nM in each case. Also, the IC50 was 0.1 to 50 nM in test [5], 50 to 200 nM in test [6], 0.1 to 50 nM in test [7] and 0.1 to 50 nM in test [8].

As for `COc1cc2[nH]nc(-c3cnc(N4CC(N)(C5CCC5)C4)c(C#N)c3)c2cc1O[C@H](C)c1c(Cl)cncc1Cl` [Example 356, (R)-2-(3-amino-3-cyclobutylazetidin-1-yl)-5-(5-(1-(3,5-dichloropyridin-4-yl)ethoxy)-6-methoxy-1H-indazol-3-yl)nicotinonitrile], the Kd in test [1], in test [2], in test [3] and in test [4] was 1 to 50 nM each time. Besides, the IC50 in test [5] fell in the range of 200 to 1000 nM; in test [6] it was 50 to 200 nM; in test [7] it was 0.1 to 50 nM; in test [8], 0.1 to 50 nM.

As to `COc1cc2[nH]nc(-c3cnc(N4CC(N)(CC(C)C)C4)c(C#N)c3)c2cc1O[C@H](C)c1c(Cl)cncc1Cl` [Example 357, (R)-2-(3-amino-3-isobutylazetidin-1-yl)-5-(5-(1-(3,5-dichloropyridin-4-yl)ethoxy)-6-methoxy-1H-indazol-3-yl)nicotinonitrile], the Kd in test [1], in test [2], in test [3] and in test [4] was 1 to 50 nM throughout. Moreover, the 50% inhibitory concentration (IC50) in test [5] was 50 to 200 nM; in test [6], 50 to 200 nM; in test [7], 50 to 200 nM; in test [8], 0.1 to 50 nM.

On to `COc1cc2[nH]nc(-c3cnc(N4CC(N)(CC5CC5)C4)c(C#N)c3)c2cc1O[C@H](C)c1c(Cl)cncc1Cl` [Example 359], for which the Kd in test [1], in test [2], in test [3] and in test [4] was 1 to 50 nM each time. Also, the IC50 in test [5] was in the range of 50 to 200 nM; in test [6], 50 to 200 nM; in test [7] it was 50 to 200 nM; in test [8], 0.1 to 50 nM.

Consider `CCCC1(N)CN(c2ncc(-c3n[nH]c4cc(OC)c(O[C@H](C)c5c(Cl)cncc5Cl)cc34)cc2C#N)C1` [Example 360, (R)-2-(3-amino-3-propylazetidin-1-yl)-5-(5-(1-(3,5-dichloropyridin-4-yl)ethoxy)-6-methoxy-1H-indazol-3-yl)nicotinonitrile], for which the Kd in test [1], in test [2], in test [3] and in test [4] was 1 to 50 nM in each case. For the same compound, the IC50 in test [5] was in the range of 50 to 200 nM; in test [6], 50 to 200 nM; in test [7] it was 0.1 to 50 nM; in test [8], 0.1 to 50 nM.

For the compound `COc1cc2[nH]nc(-c3cnc(N4CC(N)(CC(C)(C)O)C4)c(C#N)c3)c2cc1O[C@H](C)c1c(Cl)cncc1Cl` [Example 361, (R)-2-(3-amino-3-(2-hydroxy-2-methylpropyl)azetidin-1-yl)-5-(5-(1-(3,5-dichloropyridin-4-yl)ethoxy)-6-methoxy-1H-indazol-3-yl)nicotinonitrile], the Kd in test [1], in test [2], in test [3] and in test [4] was 1 to 50 nM in each case. For the same compound, the IC50 fell in the range of 50 to 200 nM in test [5], 200 to 1000 nM in test [6], 50 to 200 nM in test [7] and 50 to 200 nM in test [8].

As to `C=CCC1(N)CN(c2ncc(-c3n[nH]c4cc(OC)c(O[C@H](C)c5c(Cl)cncc5Cl)cc34)cc2C#N)C1` [Example 362, (R)-2-(3-ally1-3-aminoazetidin-1-yl)-5-(5-(1-(3,5-dichloropyridin-4-yl)ethoxy)-6-methoxy-1H-indazol-3-yl)nicotinonitrile], the Kd in test [1], in test [2], in test [3] and in test [4] was 1 to 50 nM in each case. Moreover, the IC50 in test [5] lay in the range of 50 to 200 nM; in test [6], 50 to 200 nM; in test [7] it was 0.1 to 50 nM; in test [8] it was 0.1 to 50 nM.

(Values after patent publication US20250368666A1, “INDAZOLE COMPOUNDS” (TYRA BIOSCIENCES, INC., priority 2022, published 2025).)
